Measurements published in PubChem BioAssay (NCI).
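96-well plates; 48 h exposure; 5 concentrations. Endpoints by linear interpolation between flanking doses. Not reached: highest tested concentration assigned. TGI: concentration producing complete growth inhibition.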

Tests used:
Assay in all cases: NCI-60 cell line screen, 48 h
786-0 renal = tested on: 786-0 renal
A549 NSCLC = tested on: A549 NSCLC
ACHN renal = tested on: ACHN renal
CAKI-1 renal = tested on: CAKI-1 renal
CCRF-CEM leukemia = tested on: CCRF-CEM leukemia
COLO 205 colon = tested on: COLO 205 colon
DLD-1 colon = tested on: DLD-1 colon
DMS 114 small cell lung = tested on: DMS 114 small cell lung
DMS 273 small cell lung = tested on: DMS 273 small cell lung
HCT-116 colon = tested on: HCT-116 colon
HCT-15 colon = tested on: HCT-15 colon
HL-60(TB) leukemia = tested on: HL-60(TB) leukemia
HOP-18 NSCLC = tested on: HOP-18 NSCLC
HOP-62 NSCLC = tested on: HOP-62 NSCLC
HOP-92 NSCLC = tested on: HOP-92 NSCLC
HT29 colon = tested on: HT29 colon
IGROV1 ovarian = tested on: IGROV1 ovarian
K-562 leukemia = tested on: K-562 leukemia
KM12 colon = tested on: KM12 colon
LOX IMVI melanoma = tested on: LOX IMVI melanoma
LXFL 529 NSCLC = tested on: LXFL 529 NSCLC
M14 melanoma = tested on: M14 melanoma
M19-MEL melanoma = tested on: M19-MEL melanoma
MALME-3M melanoma = tested on: MALME-3M melanoma
MOLT-4 leukemia = tested on: MOLT-4 leukemia
NCI-H226 lung = tested on: NCI-H226 lung
NCI-H23 lung = tested on: NCI-H23 lung
NCI-H460 lung = tested on: NCI-H460 lung
NCI-H522 lung = tested on: NCI-H522 lung
OVCAR-4 ovarian = tested on: OVCAR-4 ovarian
OVCAR-5 ovarian = tested on: OVCAR-5 ovarian
OVCAR-8 ovarian = tested on: OVCAR-8 ovarian
RPMI-8226 leukemia = tested on: RPMI-8226 leukemia
RXF 393 renal = tested on: RXF 393 renal
SF-268 CNS = tested on: SF-268 CNS
SF-295 CNS = tested on: SF-295 CNS
SF-539 CNS = tested on: SF-539 CNS
SK-MEL-2 melanoma = tested on: SK-MEL-2 melanoma
SK-MEL-28 melanoma = tested on: SK-MEL-28 melanoma
SK-MEL-5 melanoma = tested on: SK-MEL-5 melanoma
SK-OV-3 ovarian = tested on: SK-OV-3 ovarian
SN12C renal = tested on: SN12C renal
SNB-75 CNS = tested on: SNB-75 CNS
SR leukemia = tested on: SR leukemia
SW-620 colon = tested on: SW-620 colon
TK-10 renal = tested on: TK-10 renal
U251 CNS = tested on: U251 CNS
UACC-257 melanoma = tested on: UACC-257 melanoma
UACC-62 melanoma = tested on: UACC-62 melanoma
UO-31 renal = tested on: UO-31 renal
HCC-2998 colon = tested on: HCC-2998 colon
OVCAR-3 ovarian = tested on: OVCAR-3 ovarian
SNB-19 CNS = tested on: SNB-19 CNS
SNB-78 CNS = tested on: SNB-78 CNS
XF 498 CNS = tested on: XF 498 CNS

## O=c1cc(-c2ccccc2)[nH]c2cc(Cl)cc(Cl)c12
786-0 renal
  TGI: 60 µM
A549 NSCLC
  TGI: > 100 µM
ACHN renal
  TGI: > 100 µM
CAKI-1 renal
  TGI: > 100 µM
CCRF-CEM leukemia
  TGI: > 100 µM
COLO 205 colon
  TGI: > 100 µM
DLD-1 colon
  TGI: > 100 µM
DMS 114 small cell lung
  TGI: > 100 µM
DMS 273 small cell lung
  TGI: > 100 µM
HCT-116 colon
  TGI: > 100 µM
HCT-15 colon
  TGI: > 100 µM
HL-60(TB) leukemia
  TGI: > 100 µM
HOP-18 NSCLC
  TGI: > 100 µM
HOP-62 NSCLC
  TGI: > 100 µM
HOP-92 NSCLC
  TGI: 58.3 µM
HT29 colon
  TGI: > 100 µM
IGROV1 ovarian
  TGI: > 100 µM
K-562 leukemia
  TGI: > 100 µM
KM12 colon
  TGI: > 100 µM
LOX IMVI melanoma
  TGI: > 100 µM
LXFL 529 NSCLC
  TGI: > 100 µM
M14 melanoma
  TGI: > 100 µM
M19-MEL melanoma
  TGI: > 100 µM
MALME-3M melanoma
  TGI: > 100 µM
MOLT-4 leukemia
  TGI: > 100 µM
NCI-H226 lung
  TGI: > 100 µM
NCI-H23 lung
  TGI: > 100 µM
NCI-H460 lung
  TGI: > 100 µM
NCI-H522 lung
  TGI: > 100 µM
OVCAR-4 ovarian
  TGI: 68.6 µM
OVCAR-5 ovarian
  TGI: > 100 µM
OVCAR-8 ovarian
  TGI: 83.5 µM
RPMI-8226 leukemia
  TGI: > 100 µM
RXF 393 renal
  TGI: 51.2 µM
SF-268 CNS
  TGI: > 100 µM
SF-295 CNS
  TGI: > 100 µM
SF-539 CNS
  TGI: > 100 µM
SK-MEL-2 melanoma
  TGI: > 100 µM
SK-MEL-28 melanoma
  TGI: > 100 µM
SK-MEL-5 melanoma
  TGI: > 100 µM
SK-OV-3 ovarian
  TGI: 59.4 µM
SN12C renal
  TGI: > 100 µM
SNB-75 CNS
  TGI: 30 µM
SR leukemia
  TGI: > 100 µM
SW-620 colon
  TGI: > 100 µM
TK-10 renal
  TGI: > 100 µM
U251 CNS
  TGI: > 100 µM
UACC-257 melanoma
  TGI: > 100 µM
UACC-62 melanoma
  TGI: > 100 µM
UO-31 renal
  TGI: > 100 µM

## N#CC(C#N)=C(N)/C(C#N)=C\c1ccnc2ccccc12
786-0 renal
  TGI: 37.2 µM
A549 NSCLC
  TGI: > 100 µM
ACHN renal
  TGI: > 100 µM
CAKI-1 renal
  TGI: 92.1 µM
CCRF-CEM leukemia
  TGI: 10.3 µM
COLO 205 colon
  TGI: > 100 µM
DLD-1 colon
  TGI: 27.5 µM
DMS 114 small cell lung
  TGI: 38.8 µM
DMS 273 small cell lung
  TGI: 40.5 µM
HCC-2998 colon
  TGI: > 100 µM
HCT-116 colon
  TGI: 12.4 µM
HL-60(TB) leukemia
  TGI: 4.69 µM
HOP-18 NSCLC
  TGI: > 100 µM
HOP-62 NSCLC
  TGI: 56.5 µM
HOP-92 NSCLC
  TGI: 88 µM
HT29 colon
  TGI: 57.7 µM
IGROV1 ovarian
  TGI: 49.5 µM
K-562 leukemia
  TGI: 26.1 µM
KM12 colon
  TGI: > 100 µM
LXFL 529 NSCLC
  TGI: 54.3 µM
M14 melanoma
  TGI: > 100 µM
M19-MEL melanoma
  TGI: 40.8 µM
MALME-3M melanoma
  TGI: 87 µM
MOLT-4 leukemia
  TGI: 47.9 µM
NCI-H23 lung
  TGI: 40.5 µM
NCI-H460 lung
  TGI: > 100 µM
NCI-H522 lung
  TGI: 89.1 µM
OVCAR-3 ovarian
  TGI: > 100 µM
OVCAR-4 ovarian
  TGI: > 100 µM
OVCAR-5 ovarian
  TGI: > 100 µM
OVCAR-8 ovarian
  TGI: 55.7 µM
RXF 393 renal
  TGI: 35.3 µM
SF-268 CNS
  TGI: 66.3 µM
SF-295 CNS
  TGI: 80.4 µM
SF-539 CNS
  TGI: 31.1 µM
SK-MEL-28 melanoma
  TGI: 40.2 µM
SK-MEL-5 melanoma
  TGI: 34 µM
SN12C renal
  TGI: 60 µM
SNB-19 CNS
  TGI: > 100 µM
SNB-75 CNS
  TGI: 70.7 µM
SNB-78 CNS
  TGI: > 100 µM
SR leukemia
  TGI: 58 µM
SW-620 colon
  TGI: 17.2 µM
TK-10 renal
  TGI: > 100 µM
U251 CNS
  TGI: 43.1 µM
UACC-257 melanoma
  TGI: 58.6 µM
UACC-62 melanoma
  TGI: 38.9 µM
UO-31 renal
  TGI: 40.9 µM
XF 498 CNS
  TGI: 69.7 µM
